System: mouse NK cell (NK1.1+CD3−) production from HPCs
Assay: In vitro development of NK cells from mouse HPCs (NK cell development assay, flow cytometry at Day 9)
Format: cell-based
Description: FIG. 2: Timeline of NK cell development assay. HPCs were isolated and cultured plus FIt3L, IL-7 and SCF cytokines. At Day 2, they were then transferred onto OP9 stromal cells plus or minus drug in culture medium plus the IL-15 cytokine. The media of the cultures were changed at Day 5 and the cells were harvested and analysed at Day 9.
Lineage negative cells are enriched for Hematopoietic Progenitor Cells (HPCs). […] Cells were harvested on Day 9 and analysed using flow cytometry to determine the number of NK1.1^+CD3^− cells (FIG. 2). NK1.1^+ and CD3^− are two cell surface markers that can define mouse NK cells. OP9 stromal cells were readily excluded from the analysis, as the OP9 stromal cells used were GFP positive (FIG. 3B). Flow cytometry data were analysed as the fold increase, relative to the ‘No drug’ or untreated control in each experiment. This is because the absolute percentage of NK cell production varies between experiments.
Lineage negative HSCs were purified from mouse bone marrow by crushing the leg bones in Phosphate-buffered Saline (PBS) with 2% fetal calf serum (FCS) (STEMCELL Technologies), topped up to 40 ml with magnetic-activated cell sorting (MACS) buffer (PBS, 2 mM EDTA, 0.5% BSA, sterile and filtered) and centrifuged at 800 g for 2 minutes. The cells were resuspended in PE-conjugated cocktail, (20 μl of anti-B220 (RA3-6B2), anti-mouse CD2 (RM2-5, anti-Ter119 (TER119) and anti-NK.1.1 (PK136) and 5 μl of anti-CD11b (M1/70) and anti-GR-1 (RB6-8C5) antibodies (all from Bioscience)) incubated for 5 minutes at 4° C., centrifuged and resuspended in anti-PE microbeads for 15 minutes at 4° C. Cells were washed in MACS buffer and passed through MACS columns. This allowed negative selection of HPCs. Following lineage depletion, 50 μl of the cells was analysed using flow cytometry to check for purity.
The HPCs were plated and cultured in 24-well plates at a concentration of 5×10^5 HPCs/well in 1 ml of complete cytokine medium (Dulbecco's modified eagle medium (DMEM) (Sigma Aldrich), 10% FCS, 50 μM β-Mercaptoethanol, 10 ng/ml Flt3-ligand (FIt3L) (R&D Systems), 10 ng/ml IL-7 (R&D Systems), 100 ng/ml stem cell factor (SCF) (R&D Systems) and 1% P/S) for 2 days at 37° C., 5% CO2. The HPCs were then transferred onto OP9 cells at 4500 cells/well for 96-well plate experiments and 3×10^4 cells/well for 24-well plate experiments in mouse NK cells differentiation medium (Alpha-MEM (Sigma Aldrich) plus 20% FCS, 1% P/S and 30 ng/ml IL-15). Cells were left in culture at 37° C., 5% CO2 for 7 days with a change of mouse NK cells differentiation medium at day 3 or 4.
Cells to be analysed by flow cytometry were passed through 40 μm cell strainers to remove clumps and washed with PBS buffer, centrifuged at 800 g for 2 minutes and resuspended in 100 μl fluorescent activated cell sorting (FACS) buffer (PBS plus 1% BSA) with appropriate fluorochrome conjugated antibodies at a dilution of 1 in 300. Cells were stained with the following antibodies, all of which were anti-mouse and are from eBioscience unless specified: 2B4 (clone m2B4(B6) 458.1; BioLegend), CD2 (RM2-5), CD3 (17A2), CD11b (M1/70), CD19 (1D3), CD27 (LG.7F9), CD122 (TM-b1), CD127 (A7R34), B220 (RA3-6B2), ckit (ACK2), Flt3 (A2F10), Gr1 (RB6-8C5), NK1.1 (PK136), Sca1 (D7), Ter119 (TER119), NKp46 (29A1.4) anti-human CD45 (HI30), anti-human CD2 (RPA-2.10) and anti-human CD56 (CMSSB). The lineage cocktail contained B220, CD2, CD11b, Gr1, NK1.1, and Ter119. Cells were stained in the dark at 4° C. for 30 minutes and then washed with 2 ml FACS buffer, centrifuged and resuspend in 300 μl FACS buffer plus Propidium Iodide (PI) also at a dilution of 1 in 300. Flow cytometry was performed using LSRFortessa™ cell analyser (Becton Dickinson Bioscience), sorted using FACSAria (Becton Dickinson) as indicated and full data analysis was done using FlowJo Software.

## NC(=O)c1ccc(-c2nc(-c3ccc4c(c3)OCCO4)c(-c3ccccn3)[nH]2)cc1 [D4476]
20 μM added Day 2, analysed Day 9, screen (FIG. 3)
  NK cell production compared to 'No drug' control: significant increase

## CC(C)(C)OC(=O)CN(Cc1ccc(Cl)cc1)Cc1ccc([N+](=O)[O-])s1 [GSK4112]
GSK4112 tested at 2, 5, 10 and 20 μM (FIG. 6), concentration not given
  NK cell production reduced: ~50%
Summary in Discussion
  effect on NK cell production: decreasing NK cell production

## N#Cc1ccc(-c2csc(NN=C3CCCC3)n2)cc1 [Remodelin]
5 μM added Day 2, analysed Day 9, screen (FIG. 3)
  NK cell production compared to 'No drug' control: significant increase
